Values quoted from earlier work, collected in patent US20190343774A1, “Compositions and Methods for Treating Neurologic Disorders” (PALUPA MEDICAL LTD., priority 2011, published 2019).

Tested on: relapsing multiple sclerosis

Substance | decrease of the possibility of disability accumulation (known) | decrease on ARR (known) | reduction of the annualized relapse rate (two-year trials)
Tysabri®: monoclonal antibody; second-line MS drug | 43% | 68% | –
glatiramer acetate | – | – | about one third
